{"source": "patent US8952024B2", "about": "“Herbicidal pyrimidone derivatives” (E I du Pont de Nemours and Company, priority 2009, dated 2015)", "format_in_all_cases": "in vivo", "key": {"[1]": {"test_system": "Italian ryegrass (Lolium multiflorum)", "experiment": "Test B pre-/postemergence plant response", "settings": "for Plant response rating, Ryegrass, Italian: Postemergence", "how_it_was_run": "(§1)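 Each species received compound formulated in non-phytotoxic solvent with surfactant, either at planting into a loam and sand blend or as a foliar spray once plants reached 2 to 18 cm in peat-based medium. Plants stayed in the greenhouse 13 to 15 days before visual evaluation against controls, scored 0 (no effect) to 100 (complete control).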"}, "[2]": {"test_system": "bermudagrass (Cynodon dactylon)", "experiment": "Test B pre-/postemergence plant response", "settings": "for Plant response rating, Bermudagrass: Postemergence", "how_it_was_run": "as §1"}, "[3]": {"test_system": "blackgrass (Alopecurus myosuroides)", "experiment": "Test B pre-/postemergence plant response", "settings": "for Plant response rating, Blackgrass: Postemergence", "how_it_was_run": "as §1"}, "corn (Zea mays)": {"test_system": "corn (Zea mays)", "experiment": "Test B pre-/postemergence plant response", "settings": "for Plant response rating, Corn: Postemergence", "how_it_was_run": "as §1"}, "[4]": {"test_system": "downy bromegrass (Bromus tectorum)", "experiment": "Test B pre-/postemergence plant response", "settings": "for Plant response rating, Bromegrass, Downy: Postemergence", "how_it_was_run": "as §1"}, "[5]": {"test_system": "giant foxtail (Setaria faberii)", "experiment": "Test B pre-/postemergence plant response", "settings": "for Plant response rating, Foxtail, Giant: Postemergence", "how_it_was_run": "as §1"}, "[6]": {"test_system": "goosegrass (Eleusine indica)", "experiment": "Test B pre-/postemergence plant response", "settings": "for Plant response rating, Goosegrass: Postemergence", "how_it_was_run": "as §1"}, "[7]": {"test_system": "green foxtail (Setaria viridis)", "experiment": "Test B pre-/postemergence plant response", "settings": "for Plant response rating, Foxtail, Green: Postemergence", "how_it_was_run": "as §1"}, "[8]": {"test_system": "johnsongrass (Sorghum halepense)", "experiment": "Test B pre-/postemergence plant response", "settings": "for Plant response rating, Johnsongrass: Postemergence", "how_it_was_run": "as §1"}, "[9]": {"test_system": "morningglory (Ipomoea coccinea)", "experiment": "Test B pre-/postemergence plant response", "settings": "for Plant response rating, Morningglory: Postemergence", "how_it_was_run": "as §1"}, "[10]": {"test_system": "pigweed (Amaranthus retroflexus)", "experiment": "Test B pre-/postemergence plant response", "settings": "for Plant response rating, Pigweed: Postemergence", "how_it_was_run": "as §1"}, "[11]": {"test_system": "ragweed (common ragweed, Ambrosia elatior)", "experiment": "Test B pre-/postemergence plant response", "settings": "for Plant response rating, Ragweed: Postemergence", "how_it_was_run": "as §1"}, "soybean (Glycine max)": {"test_system": "soybean (Glycine max)", "experiment": "Test B pre-/postemergence plant response", "settings": "for Plant response rating, Soybean: Postemergence", "how_it_was_run": "as §1"}, "[12]": {"test_system": "velvetleaf (Abutilon theophrasti)", "experiment": "Test B pre-/postemergence plant response", "settings": "for Plant response rating, Velvetleaf: Postemergence", "how_it_was_run": "as §1"}, "[13]": {"test_system": "wheat (Triticum aestivum)", "experiment": "Test B pre-/postemergence plant response", "settings": "for Plant response rating, Wheat: Postemergence", "how_it_was_run": "as §1"}, "[14]": {"test_system": "canarygrass (Phalaris minor)", "experiment": "Test B postemergence plant response", "settings": "for Plant response rating, Canarygrass: Postemergence", "how_it_was_run": "(§2)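 Plants grown in peat/vermiculite medium were sprayed postemergence at 2–18 cm height (1- to 4-leaf stage). After 13–15 days in the greenhouse, response was rated visually against untreated controls on a 0–100 scale (0 no effect, 100 complete control).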"}, "[15]": {"test_system": "chickweed (Stellaria media)", "experiment": "Test B postemergence plant response", "settings": "for Plant response rating, Chickweed: Postemergence", "how_it_was_run": "as §2"}, "[16]": {"test_system": "winter barley (Hordeum vulgare)", "experiment": "Test B postemergence plant response", "settings": "for Plant response rating, Barley: Postemergence", "how_it_was_run": "as §2"}, "[17]": {"settings": "62 g ai/ha, postemergence, 0 is no effect, 100 is complete control, 13 to 15 days"}, "[18]": {"settings": "31 g ai/ha, 0 to 100 scale (0 no effect, 100 complete control)"}, "[19]": {"settings": "125 g ai/ha, scale 0 to 100 (0 no effect, 100 complete control)"}, "[20]": {"settings": "250 g ai/ha, scale 0 to 100 (0 no effect, 100 complete control), 13 to 15 days"}}, "data": [{"smiles": "O=C1CCCC(O)=C1C(=O)c1cnc(-c2ccccc2)n(C2CCCCCC2)c1=O", "note": "[Compound 130]", "values": [{"measurement": "Ryegrass, Italian plant response rating (0 to 100 scale)", "setting": "[1]; [17]", "value": 0}, {"measurement": "Plant response rating, Ryegrass, Italian", "setting": "[1]; [18]", "value": 0}, {"measurement": "Plant response rating, Ryegrass, Italian", "setting": "[1]; [19]", "value": 0}, {"measurement": "Plant response rating, Ryegrass, Italian", "setting": "[1]; [20]", "value": 5}, {"measurement": "Bermudagrass plant response rating (0 to 100 scale)", "setting": "[2]; [17]", "value": 90}, {"measurement": "Plant response rating, Bermudagrass", "setting": "[2]; [18]", "value": 75}, {"measurement": "Plant response rating, Bermudagrass", "setting": "[2]; [19]", "value": 90}, {"measurement": "Plant response rating, Bermudagrass", "setting": "[2]; [20]", "value": 95}, {"measurement": "Blackgrass plant response rating (0 to 100 scale)", "setting": "[3]; [17]", "value": 5}, {"measurement": "Plant response rating, Blackgrass", "setting": "[3]; [18]", "value": 0}, {"measurement": "Plant response rating, Blackgrass", "setting": "[3]; [19]", "value": 5}, {"measurement": "Plant response rating, Blackgrass", "setting": "[3]; [20]", "value": 5}, {"measurement": "Corn plant response rating (0 to 100 scale)", "setting": "corn (Zea mays); [17]", "value": 60}, {"measurement": "Plant response rating, Corn", "setting": "corn (Zea mays); [18]", "value": 55}, {"measurement": "Plant response rating, Corn", "setting": "corn (Zea mays); [19]", "value": 80}, {"measurement": "Plant response rating, Corn", "setting": "corn (Zea mays); [20]", "value": 80}, {"measurement": "Bromegrass, Downy plant response rating (0 to 100 scale)", "setting": "[4]; [17]", "value": 15}, {"measurement": "Plant response rating, Bromegrass, Downy", "setting": "[4]; [18]", "value": 10}, {"measurement": "Plant response rating, Bromegrass, Downy", "setting": "[4]; [19]", "value": 35}, {"measurement": "Plant response rating, Bromegrass, Downy", "setting": "[4]; [20]", "value": 40}, {"measurement": "Foxtail, Giant plant response rating (0 to 100 scale)", "setting": "[5]; [17]", "value": 90}, {"measurement": "Plant response rating, Foxtail, Giant", "setting": "[5]; [18]", "value": 90}, {"measurement": "Plant response rating, Foxtail, Giant", "setting": "[5]; [19]", "value": 98}, {"measurement": "Plant response rating, Foxtail, Giant", "setting": "[5]; [20]", "value": 98}, {"measurement": "Goosegrass plant response rating (0 to 100 scale)", "setting": "[6]; [17]", "value": 85}, {"measurement": "Plant response rating, Goosegrass", "setting": "[6]; [18]", "value": 85}, {"measurement": "Plant response rating, Goosegrass", "setting": "[6]; [19]", "value": 95}, {"measurement": "Plant response rating, Goosegrass", "setting": "[6]; [20]", "value": 95}, {"measurement": "Foxtail, Green plant response rating (0 to 100 scale)", "setting": "[7]; [17]", "value": 90}, {"measurement": "Plant response rating, Foxtail, Green", "setting": "[7]; [18]", "value": 90}, {"measurement": "Plant response rating, Foxtail, Green", "setting": "[7]; [19]", "value": 95}, {"measurement": "Plant response rating, Foxtail, Green", "setting": "[7]; [20]", "value": 98}, {"measurement": "Johnsongrass plant response rating (0 to 100 scale)", "setting": "[8]; [17]", "value": 60}, {"measurement": "Plant response rating, Johnsongrass", "setting": "[8]; [18]", "value": 60}, {"measurement": "Plant response rating, Johnsongrass", "setting": "[8]; [19]", "value": 80}, {"measurement": "Plant response rating, Johnsongrass", "setting": "[8]; [20]", "value": 80}, {"measurement": "Morningglory plant response rating (0 to 100 scale)", "setting": "[9]; [17]", "value": 95}, {"measurement": "Plant response rating, Morningglory", "setting": "[9]; [18]", "value": 95}, {"measurement": "Plant response rating, Morningglory", "setting": "[9]; [19]", "value": 100}, {"measurement": "Plant response rating, Morningglory", "setting": "[9]; [20]", "value": 100}, {"measurement": "Pigweed plant response rating (0 to 100 scale)", "setting": "[10]; [17]", "value": 98}, {"measurement": "Plant response rating, Pigweed", "setting": "[10]; [18]", "value": 95}, {"measurement": "Plant response rating, Pigweed", "setting": "[10]; [19]", "value": 100}, {"measurement": "Plant response rating, Pigweed", "setting": "[10]; [20]", "value": 100}, {"measurement": "Ragweed plant response rating (0 to 100 scale)", "setting": "[11]; [17]", "value": 90}, {"measurement": "Plant response rating, Ragweed", "setting": "[11]; [18]", "value": 85}, {"measurement": "Plant response rating, Ragweed", "setting": "[11]; [19]", "value": 98}, {"measurement": "Plant response rating, Ragweed", "setting": "[11]; [20]", "value": 98}, {"measurement": "Soybean plant response rating (0 to 100 scale)", "setting": "soybean (Glycine max); [17]", "value": 98}, {"measurement": "Plant response rating, Soybean", "setting": "soybean (Glycine max); [18]", "value": 98}, {"measurement": "Plant response rating, Soybean", "setting": "soybean (Glycine max); [19]", "value": 98}, {"measurement": "Plant response rating, Soybean", "setting": "soybean (Glycine max); [20]", "value": 100}, {"measurement": "Velvetleaf plant response rating (0 to 100 scale)", "setting": "[12]; [17]", "value": 95}, {"measurement": "Plant response rating, Velvetleaf", "setting": "[12]; [18]", "value": 95}, {"measurement": "Plant response rating, Velvetleaf", "setting": "[12]; [19]", "value": 98}, {"measurement": "Plant response rating, Velvetleaf", "setting": "[12]; [20]", "value": 100}, {"measurement": "Wheat plant response rating (0 to 100 scale)", "setting": "[13]; [17]", "value": 5}, {"measurement": "Plant response rating, Wheat", "setting": "[13]; [18]", "value": 5}, {"measurement": "Plant response rating, Wheat", "setting": "[13]; [19]", "value": 5}, {"measurement": "Plant response rating, Wheat", "setting": "[13]; [20]", "value": 10}, {"measurement": "Canarygrass plant response rating (0 to 100 scale)", "setting": "[14]; [17]", "value": 20}, {"measurement": "Plant response rating, Canarygrass", "setting": "[14]; [18]", "value": 5}, {"measurement": "Plant response rating, Canarygrass", "setting": "[14]; [19]", "value": 20}, {"measurement": "Plant response rating, Canarygrass", "setting": "[14]; [20]", "value": 25}, {"measurement": "Chickweed plant response rating (0 to 100 scale)", "setting": "[15]; [17]", "value": 98}, {"measurement": "Plant response rating, Chickweed", "setting": "[15]; [18]", "value": 98}, {"measurement": "Plant response rating, Chickweed", "setting": "[15]; [19]", "value": 100}, {"measurement": "Plant response rating, Chickweed", "setting": "[15]; [20]", "value": 100}, {"measurement": "Barley plant response rating (0 to 100 scale)", "setting": "[16]; [17]", "value": 0}, {"measurement": "Plant response rating, Barley", "setting": "[16]; [18]", "value": 0}, {"measurement": "Plant response rating, Barley", "setting": "[16]; [19]", "value": 0}, {"measurement": "Plant response rating, Barley", "setting": "[16]; [20]", "value": 0}]}]}
